Holding throughout (format): cell-based
In test [1] the test system is T47D (PI3Kα H1047R mutant) cells. Nature of the test: Inhibition of pAKT formation, alphaLISA SureFire Ultra AKT 1/2/3 (pS473), T47D cells. Conditions: Homo sapiens, T47D, T47D (PI3Kα H1047R mutant) cells; inhibition of pAKT (pS473) formation; approximately one hour or 24 hours treatment; read-out: T47D pAKT (H1047R mutant) IC50. The method, then:
The ability of a compound of Formula (I) to inhibit the formation of pAKT was measured using alphaLISA Surefire Ultra AKT 1/2/3 (pS473) Assay Kit (#ALSU-PAKT-B50K) was obtained from Perkin Elmer (Waltham, MA).
To prepare assay plates for pAKT alphaLISA assays, cells were trypsinized, resuspended in fresh media, and viable cells were counted utilizing trypan blue exclusion. Prior to seeding, cells were washed with PBS and resuspended in HBSS (Gibco, #14025092). T47D (12,000/w), SKBR3(12,000/w), or MKN1(24,000/w) cells were seeded at 12 μl per well in a solid white flat bottom 384 cell culture plate (Perkin Elmer #6007680).
Immediately after seeding, cells were dosed using an Echo Liquid Handler (Beckman Coulter) with compounds at a […] starting concentration and serially diluted (1:4) for a total of 10 concentrations. […] Cells were incubated with the compounds (solubilized in DMSO) for approximately one hour or 24 hours at 37° C. After one hour (or 24 hours) of treatment, cells were lysed with 3 μl of the 5× lysis buffer (provided and incubated at room temperature for 15 min on a microtiter plate shaker). Once cells were sufficiently lysed, 7.5 μl of the acceptor bead mix (made using the manufacturers recommended dilutions) was added to each well and left on the microtiter plate shaker for 1 min prior to incubating plates at room temperature for one hour, in the absence of light. After one hour of incubation with the acceptor bead mix, 7.5 μl of the donor bead mix (made using the manufacturers recommended dilutions) was added to each well and left on the microtiter plate shaker for 1 min prior to incubating plates at room temperature overnight in the absence of light. Plates were then imaged the following day using a CLARIOstar microplate reader (BMG Labtech, Germany).
Percent of control values were calculated by subtracting the average signal from the positive control (alpelisib) treated wells from all treated wells (including DMSO control wells) and then divided by the average signal from the vehicle DMSO treated control wells. Percent of vehicle control values were plotted as log (inhibitor) vs. response-Variable slope (four parameters) for curve fitting and IC50 values were determined using XLfit.
Key: N.D. =not determined
Inhibition of pAKT in T47D (PI3Kα H1047R mutant) cells by Exemplary Compounds of Formula (I)
(In general: Alpha assays give light when donor and acceptor beads are brought close together.)

Test [2] shares this test system. Nature of the test: CellTiter-Glo 2.0 luminescent cell viability assay, 72 hours, T47D cells. Conditions: Homo sapiens, T47D, 72 h, T47D (PI3Kα H1047R mutant) cells, CellTiter-Glo, approximately 72 hours; read-out: T47D (H1047R mutant) Viability IC50. The method, boiled down: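 Cells seeded at 1000 per well overnight were dosed with a 10-concentration, 1:4 series starting at 10 µM and incubated ~72 h at 37° C. Viability was read by CellTiter-Glo 2.0 luminescence after 30 min at room temperature. IC50 came from four-parameter fits of percent vehicle control.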
(In general: In ATP-based viability assays light output follows the ATP content of the culture.)

In test [3] the test system is SKBR3 (PI3Kα wild type) cells. Nature of the test: CellTiter-Glo 2.0 luminescent cell viability assay, 72 hours, SKBR3 cells. The conditions noted are these: Homo sapiens, SK-BR-3, 72 h, SKBR3 (PI3Kα wild type) cells, CellTiter-Glo, approximately 72 hours; read-out: SKBR3 (WT) Viability IC50. The method, boiled down: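 Viability measured via CTG luminescence following roughly 72 hours of compound exposure at 37° C. Dosing used a 10 um starting concentration diluted 1:4 over 10 points; percent-of-vehicle data fitted with a variable-slope four-parameter model for IC50.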

The text below walks through data of patent US20260078120A1, “SUBSTITUTED PYRIDOPYRIMIDINONES” (MIRATI THERAPEUTICS, INC., priority 2022, published 2026).

In general, IC50 refers to the concentration that gives 50% inhibition. With `Cc1cc([C@@H](C)Nc2ccccc2C(=O)O)c2nc(N3CCN(C(=O)c4ccc(Cl)cc4)CC3)c(C)c(=O)n2c1` [Example 10-82, (R)-2-((1-(2-(4-(4-chlorobenzoyl)piperazin-1-yl)-3,7-dimethyl-4-oxo-4H-pyrido[1,2-a]pyrimidin-9-yl)ethyl)amino)benzoic acid], the IC50 is 2.6 nM in test [1], 78.5 nM in test [2] and 7910 nM in test [3].

Consider `Cc1cc([C@@H](C)Nc2ccccc2C(=O)O)c2nc(N3CC4CC3C4)c(C#N)c(=O)n2c1` [Example 10-76, (R)-2-((1-(2-(2-azabicyclo[2.1.1]hexan-2-yl)-3-cyano-7-methyl-4-oxo-4H-pyrido[1,2-a]pyrimidin-9-yl)ethyl)amino)benzoic acid], for which the IC50 in test [1] was 1.7 nM; in test [2], 109 nM; in test [3] it was more than 10000 nM.

`Cc1cc([C@@H](C)Nc2ccccc2C(=O)O)c2nc(N3CCN(c4ccc(C#N)cc4)[C@H](C)C3)c(C)c(=O)n2c1` [Example 10-24, 2-(((R)-1-(2-((R)-4-(4-cyanophenyl)-3-methylpiperazin-1-yl)-3,7-dimethyl-4-oxo-4H-pyrido[1,2-a]pyrimidin-9-yl)ethyl)amino)benzoic acid]: the IC50 in test [1] is 5.49 nM; in test [2] it was 48.6 nM; in test [3], more than 10000 nM.

As for `Cc1cc([C@@H](C)Nc2ccccc2C(=O)O)c2nc(N3CCN(c4ccc(C#N)cc4)CC3)c(C)c(=O)n2c1` [Example 10-1, (R)-2-((1-(2-(4-(4-cyanophenyl)piperazin-1-yl)-3.7-dimethyl-4-oxo-4H-pyrido[1,2-a]pyrimidin-9-yl)ethyl)amino)benzoic acid], the IC50 in test [1] is 2.27 nM; in test [2], 38.5 nM; in test [3], 9890 nM.

In the case of `Cc1cc([C@@H](C)Nc2ccccc2C(=O)O)c2nc(N3CCC(F)(F)[C@@H](C)C3)c(C)c(=O)n2c1` [Example 10-127, 2-(((R)-1-(2-((S)-4,4-difluoro-3-methylpiperidin-1-yl)-3,7-dimethyl-4-oxo-4H-pyrido[1,2-a]pyrimidin-9-yl)ethyl)amino)benzoic acid], the IC50 in test [1] is 1.19 nM; in test [2], 74.4 nM; in test [3], more than 10000 nM.

Consider `Cc1cc([C@@H](C)Nc2ccccc2C(=O)O)c2nc(N3CCC4(CC4)C(F)(F)C3)c(C)c(=O)n2c1` [Example 10-107, (R)-2-((1-(2-(4,4-difluoro-6-azaspiro[2.5]octan-6-yl)-3,R7-dimethyl-4-oxo-4H-pyrido[1,2-a]pyrimidin-9-yl)ethyl)amino)benzoic acid], for which the IC50 was 6.72 nM in test [1], 92.5 nM in test [2] and more than 10000 nM in test [3].

For `Cc1cc([C@@H](C)Nc2ccccc2C(=O)O)c2nc(N3CCN(c4ccccc4C#N)CC3)c(C)c(=O)n2c1` [Example 10-45, (R)-2-((1-(2-(4-(2-cyanophenyl)piperazin-1-yl)-3,7-dimethyl-4-oxo-4H-pyrido[1,2-a]pyrimidin-9-yl)ethyl)amino)benzoic acid], the values for the IC50 in test [1], in test [2] and in test [3] were 2.94 nM, 64.2 nM and more than 10000 nM, respectively.

`Cc1cc([C@@H](C)Nc2ccccc2C(=O)O)c2nc(C3CCN(c4ccc(C#N)cc4)CC3)c(C)c(=O)n2c1` [Example 10-120, (R)-2-((1-(2-(1-(4-cyanophenyl)piperidin-4-yl)-3,7-dimethyl-4-oxo-4H-pyrido[1,2-a]pyrimidin-9-yl)ethyl)amino)benzoic acid]: the IC50 is 2.25 nM in test [1], 103 nM in test [2] and more than 10000 nM in test [3].

With `C[C@@H](Nc1ccccc1C(=O)O)c1cc(Cl)cn2c(=O)c(C#N)c(N3Cc4ccccc4C3)nc12` [Example 10-11, (R)-2-((1-(7-chloro-3-cyano-2-(isoindolin-2-yl)-4-oxo-4H-pyrido[1,2-a]pyrimidin-9-yl)ethyl)amino)benzoic acid], the values for the IC50 in test [1], in test [2] and in test [3] were 1.71 nM, 30.5 nM and 7770 nM, respectively.

As to `Cc1cc([C@@H](C)Nc2ccccc2C(=O)O)c2nc(N3CCN(c4cccnc4C#N)CC3)c(C)c(=O)n2c1` [Example 10-131, (R)-2-((1-(2-(4-(2-cyanopyridin-3-yl)piperazin-1-yl)-3,7-dimethyl-4-oxo-4H-pyrido[1,2-a]pyrimidin-9-yl)ethyl)amino)benzoic acid], the IC50 is 1.86 nM in test [1], 48.8 nM in test [2] and more than 10000 nM in test [3].

Take `Cc1cc([C@@H](C)Nc2ccccc2C(=O)O)c2nc(N3CC4CC(C3)C4(F)F)c(C)c(=O)n2c1` [Example 10-102, 2-(((1R)-1-(2-(6,6-difluoro-3-azabicyclo[3.1.1]heptan-3-yl)-3,7-dimethyl-4-oxo-4H-pyrido[1,2-a]pyrimidin-9-yl)ethyl)amino)benzoic acid]: the IC50 in test [1] was 3.71 nM; in test [2], 87 nM; in test [3], more than 10000 nM.

Consider `Cc1cc([C@@H](C)Nc2ccccc2C(=O)O)c2nc(N3CCN(C(=O)c4ccccc4)CC3)c(C)c(=O)n2c1` [Example 10-117, (R)-2-((1-(2-(4-benzoylpiperazin-1-yl)-3,7-dimethyl-4-oxo-4H-pyrido[1,2-a]pyrimidin-9-yl)ethyl)amino)benzoic acid], for which the values for the IC50 in test [1], in test [2] and in test [3] were 2.16 nM, 101 nM and 3720 nM, respectively.

On to `Cc1cc([C@@H](C)Nc2ccccc2C(=O)O)c2nc(N3CC4CC3C(F)(F)C4)c(C)c(=O)n2c1` (stereo partly drawn) [Example 10-141, 2-(((1R)-1-(2-(6,6-difluoro-2-azabicyclo[2.2.1]heptan-2-yl)-3,7-dimethyl-4-oxo-4H-pyrido[1,2-a]pyrimidin-9-yl)ethyl)amino)benzoic acid], for which the IC50 was 4.1 nM in test [1], 163 nM in test [2] and more than 10000 nM in test [3].

For `Cc1cc([C@@H](C)Nc2ccccc2C(=O)O)c2nc(N3Cc4ccc(F)cc4C3)c(C#N)c(=O)n2c1` [Example 10-92, (R)-2-((1-(3-cyano-2-(5-fluoroisoindolin-2-yl)-7-methyl-4-oxo-4H-pyrido[1,2-a]pyrimidin-9-yl)ethyl)amino)benzoic acid], the IC50 is 1.71 nM in test [1], 82.8 nM in test [2] and more than 10000 nM in test [3].

With `Cc1cc([C@@H](C)Nc2ccccc2C(=O)O)c2nc(N3CCC(F)(F)CC3)c(Br)c(=O)n2c1` [Example 10-12, (R)-2-((1-(3-bromo-2-(4,4-difluoropiperidin-1-yl)-7-methyl-4-oxo-4H-pyrido[1,2-a]pyrimidin-9-yl)ethyl)amino)benzoic acid], the IC50 in test [1] is 0.639 nM; in test [2], 31 nM; in test [3], more than 10000 nM.

Turning to `Cc1cc([C@@H](C)Nc2ccccc2C(=O)O)c2nc(N3CCN(c4ccc(C#N)cc4)[C@@H](C)C3)c(C#N)c(=O)n2c1` [Example 10-41, 2-(((R)-1-(3-cyano-2-((S)-4-(4-cyanophenyl)-3-methylpiperazin-1-yl)-7-methyl-4-oxo-4H-pyrido[1,2-a]pyrimidin-9-yl)ethyl)amino)benzoic acid], the results for the IC50 in test [1], in test [2] and in test [3] were 7.18 nM, 60.2 nM and more than 10000 nM, respectively.

As for `Cc1cc([C@@H](C)Nc2ccccc2C(=O)O)c2nc(N3CC4CC3C(F)(F)C4)c(C#N)c(=O)n2c1` (stereo partly drawn) [Example 10-88, 2-(((1R)-1-(3-cyano-2-(6,6-difluoro-2-azabicyclo[2.2.1]heptan-2-yl)-7-methyl-4-oxo-4H-pyrido[1,2-a]pyrimidin-9-yl)ethyl)amino)benzoic acid], the IC50 in test [1] is 3.77 nM; in test [2] it was 80.3 nM; in test [3], more than 10000 nM.

As for `Cc1cc([C@@H](C)Nc2ccccc2C(=O)O)c2nc(N(C)C3CC(F)(F)C3)c(C#N)c(=O)n2c1` [Example 10-49, (R)-2-((1-(3-cyano-2-((3,3-difluorocyclobutyl)(methyl)amino)-7-methyl-4-oxo-4H-pyrido[1,2-a]pyrimidin-9-yl)ethyl)amino)benzoic acid], the IC50 in test [1] is 2.11 nM; in test [2], 66.4 nM; in test [3], more than 10000 nM.
